Reference: patent publication US20230192617A1, “AZABICYCLIC(THIO)AMIDES AS FUNGICIDAL COMPOUNDS” (Bayer CropScience Aktiengesellschaft, priority 2020, published 2023)

Tests used:
[1] = Measurement of Log P values by HPLC on reversed phase columns (EEC directive 79/831 Annex V.A8); type: physicochemical; conditions: reversed phase HPLC column, method [a]: LC-UV, acidic range, 0.1% formic acid in water and acetonitrile as eluent
Summary of the method: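 Log P derived from retention on reversed-phase columns (EEC directive 79/831 Annex V.A8), LC-UV, acetonitrile gradient 10% to 95% against water containing 0.1% formic acid, 0.001 M ammonium acetate, or 0.1% phosphoric acid; several values per method separated by "+".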

Alternaria brassicae = assay: In vivo preventive test on Alternaria brassicae (leaf spot on radish or cabbage); conditions: 500 ppm of active ingredient, preventive spray on radish or cabbage, evaluated 3 to 4 days after inoculation, read-out: efficacy
Summary of the method: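 Protective spray on young radish or cabbage: actives in water diluted from DMSO/acetone/Tween 80, with solvent-only controls. Leaves were challenged after 24 h with a spore suspension, and plants were held at 100% RH, 20 °C for 3 to 4 days.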

Botrytis cinerea [2] = assay: In vivo preventive test on Botrytis cinerea (grey mould); conditions: 500 ppm of active ingredient, preventive spray on gherkin or cabbage, evaluated 4 to 5 days after inoculation, read-out: efficacy
Summary of the method: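 Preventive spray on cabbage or gherkin seedlings, with compound formulated in DMSO/acetone/Tween 80 and water-diluted, preceded spore inoculation by 24 hours. Cabbage was held 4 to 5 days at 20° C., 100% relative humidity; gherkin 4 to 5 days at 17° C., 90% relative humidity.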

Pyrenophora teres [3] = assay: In vivo preventive test on Pyrenophora teres (net blotch on barley); conditions: 240 h, 500 ppm of active ingredient, preventive spray on barley, evaluated 10 days after inoculation, read-out: efficacy
Protocol: B-3. In Vivo Preventive Test on Pyrenophora Teres (Net Blotch on Barley) [table] The active ingredients were made soluble and homogenized in a mixture of Dimethyl sulfoxide/Acetone/Tween® 80 and then diluted in water to the desired concentration. The young plants of barley were treated by spraying the active ingredient prepared as described above. Control plants were treated only with an aqueous solution of Acetone/Dimethyl sulfoxide/Tween® 80. After 24 hours, the plants were contaminated by spraying the leaves with an aqueous suspension of Pyrenophora teres spores. The contaminated barley plants were incubated for 48 hours at 20° C. and at 100% relative humidity and then for 8 days at 20° C. and at 70-80% relative humidity.

Sphaerotheca fuliginea = assay: In vivo preventive test on Sphaerotheca fuliginea (powdery mildew on cucurbits); conditions: Podosphaera fuliginea, 192 h; 500 ppm of active ingredient; preventive spray on gherkin; evaluated 8 days after inoculation; read-out: efficacy
Summary of the method: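 This is a preventive spray test on gherkin seedlings, with compound formulated in DMSO/acetone/Tween 80 in water and solvent-only controls. Spore inoculation followed one day after treatment. Incubation lasted 8 days at 20 °C, 70–80% RH.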

[4] = test system: Colletotrichum lindemuthianum; assay: In vivo preventive test on Colletotrichum lindemuthianum (leaf spot on bean); conditions: 168 h, 500 ppm of active ingredient, preventive spray on bean, evaluated 7 days after inoculation, read-out: efficacy
Summary of the method: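 Young bean plants sprayed with compound in DMSO/acetone/Tween 80 diluted in water; solvent-only controls. Inoculated 24 h later with C. lindemuthianum spore suspension, then kept 24 h at 20 °C/100% RH and 6 days at 20 °C/90% RH.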

Alternaria alternata = Alternaria alternata in vitro cell test; type: cell-based; conditions: 120 h, 20 ppm of active ingredient, liquid culture, 5 days incubation, spectrometric measurement of mycelium growth, read-out: efficacy (inhibition of fungal growth)
Summary of the method: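 Spectrometric readout of mycelial growth after 5-day incubation gauged compound effects on spore germination and growth of A. alternata in liquid medium. Compounds were delivered in DMSO at ≤1% final. Absorbance was compared with untreated controls to give inhibition.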

[5] = test system: Colletotrichum lindemuthianum; assay: B-8. Colletotrichum lindemuthianum in vitro cell test; type: cell-based; conditions: 144 h, 20 ppm of active ingredient, 6 days incubation, liquid culture, absorbance, read-out: efficacy (inhibition of fungal growth)
Summary of the method: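 Liquid-culture germination/growth test: compounds in ≤1% final DMSO were added to spore-containing medium. Fungal growth was quantified spectrophotometrically after 6 days of incubation and expressed as inhibition versus untreated controls.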

Pyrenophora teres [6] = assay: B-10. Pyrenophora teres in vitro cell test; type: cell-based; conditions: 144 h, 20 ppm of active ingredient, 6 days incubation, liquid culture, absorbance, read-out: efficacy (inhibition of fungal growth)
Summary of the method: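 Liquid-culture assay on a P. teres spore suspension with compounds added to the medium from DMSO solutions, final DMSO ≤1%. Mycelium growth read spectrometrically after 6 days. Inhibition calculated from absorbance against untreated control wells.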

Botrytis cinerea [7] = assay: B-11. Botrytis cinerea in vitro cell test; type: cell-based; conditions: 144 h, 20 ppm of active ingredient, 6 days incubation, liquid culture, absorbance, read-out: efficacy (inhibition of fungal growth)
Summary of the method: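 B. cinerea spores were grown in liquid culture with compound (DMSO ≤1% final). Mycelium growth was measured spectrometrically after 6 days, with inhibition taken as absorbance relative to untreated control wells.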

Septoria tritici = assay: B-9. Septoria tritici in vitro cell test; type: cell-based; conditions: Zymoseptoria tritici, 168 h; 20 ppm of active ingredient; 7 days incubation; liquid culture, absorbance; read-out: efficacy (inhibition of fungal growth)
Protocol: B-9. Septoria tritici In Vitro Cell Test [table] Fungicides were solubilized in DMSO and the solution used to prepare the required range of concentrations. The final concentration of DMSO used in the assay was ≤1%. A spore suspension of S. tritici was prepared and diluted to the desired spore density. Fungicides were evaluated for their ability to inhibit spore germination and mycelium growth in liquid culture assay. The compounds were added in the desired concentration to the culture medium with spores. After 7 days incubation, fungi-toxicity of compounds was determined by spectrometric measurement of mycelium growth. Inhibition of fungal growth was determined by comparing the absorbance values in wells containing the fungicides with the absorbance in control wells without fungicides.

SMILES: Cc1ccc(C(F)(F)CNC(=O)c2c(Oc3cccc(Br)c3)cnc3ccccc23)c(C)c1 [I-226]
- chromatographic logP [1]: 4.48
- pest or weed control at 500 ppm (Alternaria brassicae): 90 to 100%
- pest or weed control at 500 ppm (Botrytis cinerea [2]): 90 to 100%
- pest or weed control at 500 ppm (Pyrenophora teres [3]): 70 to 79%
- pest or weed control at 500 ppm (Sphaerotheca fuliginea): 90 to 100%
- pest or weed control at 500 ppm [4]: 90 to 100%
- inhibition at 20 ppm (Alternaria alternata): 90 to 100%
- inhibition at 20 ppm [5]: 90 to 100%
- inhibition at 20 ppm (Pyrenophora teres [6]): 90 to 100%
- inhibition at 20 ppm (Botrytis cinerea [7]): 90 to 100%

SMILES: Cc1cc(Cl)ccc1[C@@H](F)CNC(=O)c1c(Oc2cccc(Cl)c2)nnc2ccccc12 (racemic) [I-053]
- chromatographic logP [1]: 4.23
- pest or weed control at 500 ppm (Alternaria brassicae): 90 to 100%
- pest or weed control at 500 ppm (Botrytis cinerea [2]): 90 to 100%
- pest or weed control at 500 ppm (Pyrenophora teres [3]): 70 to 79%
- pest or weed control at 500 ppm (Sphaerotheca fuliginea): 80 to 89%
- pest or weed control at 500 ppm [4]: 90 to 100%
- inhibition at 20 ppm (Alternaria alternata): 90 to 100%
- inhibition at 20 ppm [5]: 90 to 100%
- inhibition at 20 ppm (Botrytis cinerea [7]): 90 to 100%

SMILES: O=C(NCC(F)c1ccc(Cl)cc1Cl)c1c(Oc2cccc(Cl)c2)nnc2c1CCCC2 (stereo not shown) [I-179]
- chromatographic logP [1]: 3.89
- inhibition at 20 ppm (Alternaria alternata): 90 to 100%
- inhibition at 20 ppm [5]: 90 to 100%
- inhibition at 20 ppm (Septoria tritici): 90 to 100%
- inhibition at 20 ppm (Pyrenophora teres [6]): 90 to 100%
- inhibition at 20 ppm (Botrytis cinerea [7]): 90 to 100%

SMILES: Cc1ccc([C@@H](F)CNC(=O)c2c(Oc3cccc(C(F)(F)F)c3)nnc3c2OCC(C)(C)CO3)c(C)c1 (racemic) [I-156]
- chromatographic logP [1]: 4.15
- inhibition at 20 ppm (Alternaria alternata): 90 to 100%
- inhibition at 20 ppm [5]: 90 to 100%
- inhibition at 20 ppm (Septoria tritici): 90 to 100%
- inhibition at 20 ppm (Pyrenophora teres [6]): 90 to 100%
- inhibition at 20 ppm (Botrytis cinerea [7]): 90 to 100%

SMILES: O=C(NCC(F)(F)c1ccc(Cl)cc1)c1c(Oc2cccc(C(F)F)c2)nnc2c1CCCC2 [I-120]
- chromatographic logP [1]: 3.37
- inhibition at 20 ppm (Alternaria alternata): 90 to 100%
- inhibition at 20 ppm [5]: 90 to 100%
- inhibition at 20 ppm (Septoria tritici): 80 to 89%
- inhibition at 20 ppm (Pyrenophora teres [6]): 90 to 100%
- inhibition at 20 ppm (Botrytis cinerea [7]): 90 to 100%

SMILES: Cc1ccc(C(F)(F)CNC(=O)c2c(Oc3cccc(C4CC4)c3)cnc3ccccc23)c(C)c1 [I-223]
- chromatographic logP [1]: 4.59
- pest or weed control at 500 ppm (Alternaria brassicae): 90 to 100%
- pest or weed control at 500 ppm (Botrytis cinerea [2]): 90 to 100%
- pest or weed control at 500 ppm (Pyrenophora teres [3]): 80 to 89%
- pest or weed control at 500 ppm (Sphaerotheca fuliginea): 90 to 100%
- pest or weed control at 500 ppm [4]: 90 to 100%
- inhibition at 20 ppm (Alternaria alternata): 90 to 100%
- inhibition at 20 ppm [5]: 90 to 100%
- inhibition at 20 ppm (Pyrenophora teres [6]): 90 to 100%
- inhibition at 20 ppm (Botrytis cinerea [7]): 90 to 100%

SMILES: Cc1ccc(C(F)(F)CNC(=O)c2c(Oc3cccc(C(F)F)c3)nnc3ccccc23)c(C)c1 [I-033]
- chromatographic logP [1]: 3.92
- pest or weed control at 500 ppm (Alternaria brassicae): 90 to 100%
- pest or weed control at 500 ppm (Botrytis cinerea [2]): 90 to 100%
- pest or weed control at 500 ppm (Pyrenophora teres [3]): 70 to 79%
- pest or weed control at 500 ppm (Sphaerotheca fuliginea): 90 to 100%
- pest or weed control at 500 ppm [4]: 80 to 89%
- inhibition at 20 ppm (Alternaria alternata): 90 to 100%
- inhibition at 20 ppm [5]: 90 to 100%

SMILES: O=C(NCC(F)c1ccc(Cl)cc1Cl)c1c(Oc2cccc(C(F)F)c2)nnc2c1CCCC2 (stereo not shown) [I-177]
- chromatographic logP [1]: 3.63
- inhibition at 20 ppm (Alternaria alternata): 90 to 100%
- inhibition at 20 ppm [5]: 90 to 100%
- inhibition at 20 ppm (Septoria tritici): 90 to 100%
- inhibition at 20 ppm (Pyrenophora teres [6]): 90 to 100%
- inhibition at 20 ppm (Botrytis cinerea [7]): 90 to 100%
